Experiment [1] concerns the target T1, RyR2 (Mus musculus, UniProt E9Q401). Description: ER Ca2+. It is filed as cell-based.
Experiment [2] addresses T1, RyR2. The experiment is described as follows: [3H]ryanodine binding to microsomes. It is filed as biochemical.

pEC50, pIC50: −log10 of the molar value.

T1 sequence (E9Q401 whole entry): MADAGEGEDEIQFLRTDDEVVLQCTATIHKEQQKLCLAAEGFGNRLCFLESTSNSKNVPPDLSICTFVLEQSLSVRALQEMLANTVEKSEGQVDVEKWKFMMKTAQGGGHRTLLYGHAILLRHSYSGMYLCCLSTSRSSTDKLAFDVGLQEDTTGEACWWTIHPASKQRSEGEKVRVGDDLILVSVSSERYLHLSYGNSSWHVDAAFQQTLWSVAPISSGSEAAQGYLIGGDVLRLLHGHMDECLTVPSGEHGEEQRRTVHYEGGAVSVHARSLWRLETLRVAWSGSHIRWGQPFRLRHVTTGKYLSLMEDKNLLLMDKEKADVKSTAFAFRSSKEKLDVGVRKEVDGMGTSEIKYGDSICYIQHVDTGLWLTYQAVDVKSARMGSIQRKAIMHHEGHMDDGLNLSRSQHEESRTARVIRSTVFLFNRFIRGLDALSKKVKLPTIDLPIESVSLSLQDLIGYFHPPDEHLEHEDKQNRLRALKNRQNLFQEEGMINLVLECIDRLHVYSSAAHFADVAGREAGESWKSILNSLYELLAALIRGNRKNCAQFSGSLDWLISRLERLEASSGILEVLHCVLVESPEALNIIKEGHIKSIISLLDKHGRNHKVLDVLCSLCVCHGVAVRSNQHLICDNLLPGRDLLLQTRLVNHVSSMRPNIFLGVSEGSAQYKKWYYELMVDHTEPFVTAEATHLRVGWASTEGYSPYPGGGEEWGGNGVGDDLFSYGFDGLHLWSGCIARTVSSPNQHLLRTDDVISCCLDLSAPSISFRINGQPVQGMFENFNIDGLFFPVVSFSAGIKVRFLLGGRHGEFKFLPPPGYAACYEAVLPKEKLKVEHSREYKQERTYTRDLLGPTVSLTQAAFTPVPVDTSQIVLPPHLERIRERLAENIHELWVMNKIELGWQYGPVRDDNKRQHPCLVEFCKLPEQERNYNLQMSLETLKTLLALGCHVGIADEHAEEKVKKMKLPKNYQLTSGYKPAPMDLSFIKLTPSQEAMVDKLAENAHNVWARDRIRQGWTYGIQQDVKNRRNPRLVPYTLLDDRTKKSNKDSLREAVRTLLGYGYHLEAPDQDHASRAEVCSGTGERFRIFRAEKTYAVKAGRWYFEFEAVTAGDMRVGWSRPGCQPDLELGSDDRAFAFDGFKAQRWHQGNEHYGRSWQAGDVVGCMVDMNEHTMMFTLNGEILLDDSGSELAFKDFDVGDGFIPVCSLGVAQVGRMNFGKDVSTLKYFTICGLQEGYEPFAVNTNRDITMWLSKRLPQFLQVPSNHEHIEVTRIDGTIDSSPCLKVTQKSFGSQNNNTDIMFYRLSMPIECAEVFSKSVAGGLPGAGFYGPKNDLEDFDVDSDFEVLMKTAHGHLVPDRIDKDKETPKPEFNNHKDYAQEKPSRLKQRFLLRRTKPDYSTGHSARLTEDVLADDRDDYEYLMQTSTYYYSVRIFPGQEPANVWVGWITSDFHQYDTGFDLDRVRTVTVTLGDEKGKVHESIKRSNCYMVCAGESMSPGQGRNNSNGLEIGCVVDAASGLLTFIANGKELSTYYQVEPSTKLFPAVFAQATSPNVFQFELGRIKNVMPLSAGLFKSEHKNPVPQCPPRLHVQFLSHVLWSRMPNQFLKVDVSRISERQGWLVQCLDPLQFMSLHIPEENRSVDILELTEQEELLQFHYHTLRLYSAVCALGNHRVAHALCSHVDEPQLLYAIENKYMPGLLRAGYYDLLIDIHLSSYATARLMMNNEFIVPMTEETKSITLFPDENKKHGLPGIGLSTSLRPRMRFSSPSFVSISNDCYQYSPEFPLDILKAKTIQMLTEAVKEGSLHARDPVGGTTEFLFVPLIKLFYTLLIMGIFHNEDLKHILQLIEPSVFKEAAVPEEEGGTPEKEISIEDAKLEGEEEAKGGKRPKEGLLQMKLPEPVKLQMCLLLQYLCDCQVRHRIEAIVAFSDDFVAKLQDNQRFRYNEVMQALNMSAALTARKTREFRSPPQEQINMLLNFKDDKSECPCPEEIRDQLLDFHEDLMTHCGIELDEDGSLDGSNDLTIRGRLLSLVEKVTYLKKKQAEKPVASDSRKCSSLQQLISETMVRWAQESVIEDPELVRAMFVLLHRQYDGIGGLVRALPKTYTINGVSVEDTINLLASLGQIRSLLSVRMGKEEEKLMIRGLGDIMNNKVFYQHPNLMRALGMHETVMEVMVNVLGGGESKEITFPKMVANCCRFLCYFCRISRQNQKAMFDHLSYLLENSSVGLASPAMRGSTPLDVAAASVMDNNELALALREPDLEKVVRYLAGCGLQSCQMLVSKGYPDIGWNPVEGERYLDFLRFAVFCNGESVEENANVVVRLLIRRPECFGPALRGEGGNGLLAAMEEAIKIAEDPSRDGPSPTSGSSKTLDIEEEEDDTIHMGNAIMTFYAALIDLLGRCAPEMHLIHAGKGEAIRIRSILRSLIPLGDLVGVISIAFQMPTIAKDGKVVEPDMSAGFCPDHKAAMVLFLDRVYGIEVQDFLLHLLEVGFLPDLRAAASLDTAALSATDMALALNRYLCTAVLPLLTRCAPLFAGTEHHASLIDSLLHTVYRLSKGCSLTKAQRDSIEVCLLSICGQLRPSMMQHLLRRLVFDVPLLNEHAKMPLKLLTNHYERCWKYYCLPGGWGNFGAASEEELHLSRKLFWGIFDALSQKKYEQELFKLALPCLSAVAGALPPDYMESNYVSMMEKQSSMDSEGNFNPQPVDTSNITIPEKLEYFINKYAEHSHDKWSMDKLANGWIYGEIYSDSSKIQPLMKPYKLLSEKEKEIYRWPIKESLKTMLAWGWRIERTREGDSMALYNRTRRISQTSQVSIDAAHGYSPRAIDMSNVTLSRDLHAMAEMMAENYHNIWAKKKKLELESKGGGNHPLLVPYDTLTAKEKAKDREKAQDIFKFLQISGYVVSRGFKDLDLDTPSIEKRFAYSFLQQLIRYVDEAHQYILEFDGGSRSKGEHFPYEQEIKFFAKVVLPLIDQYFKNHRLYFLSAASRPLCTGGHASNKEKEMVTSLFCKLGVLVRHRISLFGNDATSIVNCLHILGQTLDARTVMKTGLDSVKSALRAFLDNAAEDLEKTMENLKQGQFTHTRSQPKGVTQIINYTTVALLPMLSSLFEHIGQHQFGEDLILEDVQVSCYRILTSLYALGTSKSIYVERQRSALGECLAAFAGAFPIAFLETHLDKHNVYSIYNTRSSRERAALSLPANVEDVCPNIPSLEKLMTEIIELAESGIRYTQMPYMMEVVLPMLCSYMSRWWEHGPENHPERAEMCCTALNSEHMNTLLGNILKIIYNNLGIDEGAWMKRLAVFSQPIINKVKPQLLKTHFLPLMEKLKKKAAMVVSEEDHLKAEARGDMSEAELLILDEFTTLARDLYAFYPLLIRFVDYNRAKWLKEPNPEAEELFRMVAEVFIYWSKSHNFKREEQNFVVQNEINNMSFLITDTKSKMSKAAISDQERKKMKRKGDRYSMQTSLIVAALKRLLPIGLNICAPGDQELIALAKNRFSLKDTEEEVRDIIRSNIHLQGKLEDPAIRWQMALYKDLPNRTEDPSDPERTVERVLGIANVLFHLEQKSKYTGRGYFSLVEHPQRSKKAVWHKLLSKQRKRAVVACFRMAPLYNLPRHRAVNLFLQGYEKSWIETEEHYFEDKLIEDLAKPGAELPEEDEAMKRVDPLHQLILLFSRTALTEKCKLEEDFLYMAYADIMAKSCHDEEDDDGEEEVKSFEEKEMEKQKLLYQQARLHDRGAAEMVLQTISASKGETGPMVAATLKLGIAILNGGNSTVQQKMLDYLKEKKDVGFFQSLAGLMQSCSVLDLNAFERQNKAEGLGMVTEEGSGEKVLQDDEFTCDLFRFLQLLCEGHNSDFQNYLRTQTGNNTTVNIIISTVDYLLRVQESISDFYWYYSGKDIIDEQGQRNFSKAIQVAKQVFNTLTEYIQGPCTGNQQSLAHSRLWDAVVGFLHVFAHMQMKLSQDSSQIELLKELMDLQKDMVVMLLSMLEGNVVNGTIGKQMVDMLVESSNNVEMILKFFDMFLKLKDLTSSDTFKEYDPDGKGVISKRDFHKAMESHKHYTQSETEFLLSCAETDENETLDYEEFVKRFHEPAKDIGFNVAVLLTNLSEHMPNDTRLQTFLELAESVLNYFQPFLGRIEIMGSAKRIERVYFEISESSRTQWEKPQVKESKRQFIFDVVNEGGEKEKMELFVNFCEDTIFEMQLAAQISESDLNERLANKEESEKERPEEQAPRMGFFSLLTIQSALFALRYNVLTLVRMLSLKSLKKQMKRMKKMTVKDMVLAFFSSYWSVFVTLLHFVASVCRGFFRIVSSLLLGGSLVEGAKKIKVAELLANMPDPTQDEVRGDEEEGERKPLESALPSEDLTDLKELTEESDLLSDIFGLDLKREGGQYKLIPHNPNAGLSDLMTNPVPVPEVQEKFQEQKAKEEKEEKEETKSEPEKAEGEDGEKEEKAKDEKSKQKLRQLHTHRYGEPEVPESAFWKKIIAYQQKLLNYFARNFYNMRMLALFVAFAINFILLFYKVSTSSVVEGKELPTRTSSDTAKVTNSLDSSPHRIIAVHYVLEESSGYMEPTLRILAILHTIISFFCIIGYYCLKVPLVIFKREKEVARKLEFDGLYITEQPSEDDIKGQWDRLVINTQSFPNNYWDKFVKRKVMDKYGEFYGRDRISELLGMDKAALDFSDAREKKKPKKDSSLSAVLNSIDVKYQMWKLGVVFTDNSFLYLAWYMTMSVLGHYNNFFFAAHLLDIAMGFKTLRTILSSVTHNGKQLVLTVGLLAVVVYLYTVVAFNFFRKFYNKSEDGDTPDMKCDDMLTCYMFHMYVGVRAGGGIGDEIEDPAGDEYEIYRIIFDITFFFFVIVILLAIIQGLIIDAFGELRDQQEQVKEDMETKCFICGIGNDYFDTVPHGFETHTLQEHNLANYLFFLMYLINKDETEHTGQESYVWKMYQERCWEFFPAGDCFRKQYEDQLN

Compound `Cc1cc(O)cc(C)c1Cl` [#1, chloroxylenol] had a pEC50 at RyR2 [1] of 6.52. For the same compound, the pIC50 at RyR2 [2] was 6.89.

In general, pEC50 refers to the EC50 on a negative log10 scale, so that one unit is a factor of ten. Higher therefore signals a small EC50. What is called pIC50 is the negative decadic logarithm of the IC50, by convention in mol/L.

(Values after doi:10.1101/2023.08.21.553510v1 (biorxiv, 2023).)
